PubChem BioAssay (NCI)
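GI50 = concentration required for 50% inhibition of growth. At the TGI there is no net growth.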

Key:
Assay in all cases: inhibition of tumour cell growth, NCI panel, 384-well format
CAKI-1 renal = test system: CAKI-1 renal
UACC-62 melanoma = test system: UACC-62 melanoma
HS 578T breast = test system: HS 578T breast
MOLT-4 leukemia = test system: MOLT-4 leukemia
SF-539 CNS = test system: SF-539 CNS
NCI-H226 lung = test system: NCI-H226 lung
SK-MEL-2 melanoma = test system: SK-MEL-2 melanoma
COLO 205 colon = test system: COLO 205 colon
HOP-62 NSCLC = test system: HOP-62 NSCLC
HL-60(TB) leukemia = test system: HL-60(TB) leukemia
K-562 leukemia = test system: K-562 leukemia
OVCAR-4 ovarian = test system: OVCAR-4 ovarian
SR leukemia = test system: SR leukemia
M14 melanoma = test system: M14 melanoma
HCT-15 colon = test system: HCT-15 colon
DU-145 prostate = test system: DU-145 prostate
HT29 colon = test system: HT29 colon
UACC-257 melanoma = test system: UACC-257 melanoma
OVCAR-5 ovarian = test system: OVCAR-5 ovarian
SW-620 colon = test system: SW-620 colon
BT-549 breast = test system: BT-549 breast
NCI-H522 lung = test system: NCI-H522 lung
MDA-MB-468 breast = test system: MDA-MB-468 breast
SK-MEL-28 melanoma = test system: SK-MEL-28 melanoma
SNB-19 CNS = test system: SNB-19 CNS
U251 glioblastoma = test system: U251 glioblastoma
SK-OV-3 ovarian = test system: SK-OV-3 ovarian
EKVX NSCLC = test system: EKVX NSCLC
SF-295 CNS = test system: SF-295 CNS
MDA-MB-435 melanoma = test system: MDA-MB-435 melanoma
RXF 393 renal = test system: RXF 393 renal
SN12C renal = test system: SN12C renal
A549 NSCLC = test system: A549 NSCLC
NCI-H460 NSCLC = test system: NCI-H460 NSCLC
HCT-116 colon = test system: HCT-116 colon
TK-10 renal = test system: TK-10 renal
OVCAR-8 ovarian = test system: OVCAR-8 ovarian
T-47D breast = test system: T-47D breast
SF-268 CNS = test system: SF-268 CNS
OVCAR-3 ovarian = test system: OVCAR-3 ovarian
SNB-75 CNS = test system: SNB-75 CNS
NCI-H23 lung = test system: NCI-H23 lung
MCF7 breast = test system: MCF7 breast
IGROV1 ovarian = test system: IGROV1 ovarian
MDA-MB-231 breast = test system: MDA-MB-231 breast
SK-MEL-5 melanoma = test system: SK-MEL-5 melanoma
NCI-H322M lung = test system: NCI-H322M lung
MALME-3M melanoma = test system: MALME-3M melanoma
HOP-92 NSCLC = test system: HOP-92 NSCLC
786-0 renal = test system: 786-0 renal
PC-3 prostate = test system: PC-3 prostate
KM12 colon = test system: KM12 colon
UO-31 renal = test system: UO-31 renal

C=CCn1c(=O)c2cnc(Nc3ccc(N4CCN(C)CC4)cc3)nc2n1-c1ccc2c(n1)[C@@](O)(CC)CC2
GI50 (CAKI-1 renal): 0.0644 µM
TGI (CAKI-1 renal): 12.7 µM
GI50 (UACC-62 melanoma): 0.371 µM
TGI (UACC-62 melanoma): 14.7 µM
GI50 (HS 578T breast): 0.083 µM
TGI (HS 578T breast): 0.445 µM
GI50 (MOLT-4 leukemia): 0.0305 µM
TGI (MOLT-4 leukemia): 0.121 µM
GI50 (SF-539 CNS): 0.0495 µM
TGI (SF-539 CNS): 0.194 µM
GI50 (NCI-H226 lung): 1.02 µM
TGI (NCI-H226 lung): 5.55 µM
GI50 (SK-MEL-2 melanoma): 0.124 µM
TGI (SK-MEL-2 melanoma): 0.352 µM
GI50 (COLO 205 colon): 0.349 µM
TGI (COLO 205 colon): 2.02 µM
GI50 (HOP-62 NSCLC): 0.401 µM
TGI (HOP-62 NSCLC): 2.15 µM
GI50 (HL-60(TB) leukemia): 0.11 µM
TGI (HL-60(TB) leukemia): 0.233 µM
GI50 (K-562 leukemia): 0.165 µM
TGI (K-562 leukemia): 0.354 µM
GI50 (OVCAR-4 ovarian): 0.196 µM
TGI (OVCAR-4 ovarian): 1.04 µM
GI50 (SR leukemia): 0.103 µM
TGI (SR leukemia): 0.224 µM
GI50 (M14 melanoma): 0.0584 µM
TGI (M14 melanoma): 0.863 µM
GI50 (HCT-15 colon): 0.44 µM
TGI (HCT-15 colon): 1.8 µM
GI50 (DU-145 prostate): 0.241 µM
TGI (DU-145 prostate): 3.89 µM
GI50 (HT29 colon): 0.211 µM
TGI (HT29 colon): 0.536 µM
GI50 (UACC-257 melanoma): 1.95 µM
TGI (UACC-257 melanoma): 11.3 µM
GI50 (OVCAR-5 ovarian): 0.92 µM
TGI (OVCAR-5 ovarian): 14.4 µM
GI50 (SW-620 colon): 0.28 µM
TGI (SW-620 colon): 1.95 µM
GI50 (BT-549 breast): 0.137 µM
TGI (BT-549 breast): 0.348 µM
GI50 (NCI-H522 lung): 0.13 µM
TGI (NCI-H522 lung): 0.286 µM
GI50 (MDA-MB-468 breast): 0.12 µM
TGI (MDA-MB-468 breast): 0.349 µM
GI50 (SK-MEL-28 melanoma): 2.88 µM
TGI (SK-MEL-28 melanoma): 14.3 µM
GI50 (SNB-19 CNS): 1.35 µM
TGI (SNB-19 CNS): > 100 µM
GI50 (U251 glioblastoma): 0.497 µM
TGI (U251 glioblastoma): 11.4 µM
GI50 (SK-OV-3 ovarian): 0.174 µM
TGI (SK-OV-3 ovarian): 1.57 µM
GI50 (EKVX NSCLC): 0.324 µM
TGI (EKVX NSCLC): 2.51 µM
GI50 (SF-295 CNS): 0.348 µM
TGI (SF-295 CNS): 3.54 µM
GI50 (MDA-MB-435 melanoma): 0.16 µM
TGI (MDA-MB-435 melanoma): 0.374 µM
GI50 (RXF 393 renal): 0.026 µM
TGI (RXF 393 renal): 0.106 µM
GI50 (SN12C renal): 0.328 µM
TGI (SN12C renal): 3.89 µM
GI50 (A549 NSCLC): 1.83 µM
TGI (A549 NSCLC): 12.3 µM
GI50 (NCI-H460 NSCLC): 0.139 µM
TGI (NCI-H460 NSCLC): 0.806 µM
GI50 (HCT-116 colon): 0.268 µM
TGI (HCT-116 colon): 8.68 µM
GI50 (TK-10 renal): 0.16 µM
TGI (TK-10 renal): 1.56 µM
GI50 (OVCAR-8 ovarian): 0.288 µM
TGI (OVCAR-8 ovarian): 1.05 µM
GI50 (T-47D breast): 5.81 µM
TGI (T-47D breast): 21.8 µM
GI50 (SF-268 CNS): 0.689 µM
TGI (SF-268 CNS): 13.8 µM
GI50 (OVCAR-3 ovarian): 0.126 µM
TGI (OVCAR-3 ovarian): 0.371 µM
GI50 (SNB-75 CNS): 1.07 µM
TGI (SNB-75 CNS): 8.16 µM
GI50 (NCI-H23 lung): 0.0785 µM
TGI (NCI-H23 lung): 0.257 µM
GI50 (MCF7 breast): 0.218 µM
TGI (MCF7 breast): 2.19 µM
GI50 (IGROV1 ovarian): 0.0953 µM
TGI (IGROV1 ovarian): 1.35 µM
GI50 (MDA-MB-231 breast): 0.395 µM
TGI (MDA-MB-231 breast): 10.1 µM
GI50 (SK-MEL-5 melanoma): 0.172 µM
TGI (SK-MEL-5 melanoma): 0.453 µM
GI50 (NCI-H322M lung): 0.206 µM
TGI (NCI-H322M lung): 2.03 µM
GI50 (MALME-3M melanoma): 0.101 µM
TGI (MALME-3M melanoma): 0.484 µM
GI50 (HOP-92 NSCLC): 0.13 µM
TGI (HOP-92 NSCLC): 13.4 µM
GI50 ([…]-0 renal): 0.243 µM
TGI (786-0 renal): 0.964 µM
GI50 (PC-3 prostate): 1.04 µM
TGI (PC-3 prostate): 20.3 µM
GI50 (KM12 colon): 1.13 µM
TGI (KM12 colon): 7.26 µM
GI50 (UO-31 renal): 0.307 µM
TGI (UO-31 renal): 1.44 µM
